Laboratory results reported in patent US8715949B2, “Applications of the binding interaction of proanthocyanidins with bacteria and bacterial components” (priority 2006, dated 2014).

Tests used:
[1] = Stationary LPS-FITC binding assay on glass waveguide-immobilized PACs; set-up: species or system E. coli; details: patterned from 10 mg/mL solutions; LPS-FITC incubated 1 hour
Description: To determine the ability of PAC materials to effectively bind bacteria and bacterial cell components upon immobilization to a solid support, PACs from cranberry and grape juices were covalently attached to the surface of a glass microscope slide (waveguide) using a modification of a common technique used for protein immobilization (Rowe et al., Anal. Chem., 71, 3846 (1999)). Catechin monomer and buffer only areas were also included as controls. Briefly, the waveguides, glass microscope slides (Daigger, Wheeling, Ill.), were cleaned by immersion in potassium hydroxide/methanol solution (Cras et al., Biosens. Bioelectron., 14, 683 (1999)) followed by rinsing and drying. The clean waveguides were then incubated with 2% (3-mercaptopropyl)triethoxysilane (Pierce Chemicals, Rockford, Ill.) in toluene for 45 minutes followed by rinsing and drying. The slides were immersed in 1.8 mM N-[p-maleimidophenyl]isocyanate (PMPI) in ethanol for 1 hour. The maleimide-group of PMPI reacts with the sulfhydryl-group provided by the silane reaction leaving the isocyanate-group free to react with the hydroxyl-groups of PACs. […]
The ability of the immobilized PACs to bind LPS was investigated using a stationary assay. […] Slides were imaged using evanescent wave fluorescence spectroscopy with excitation at 496 nm and emission collected above 515 nm. […]

[2] = Pull-down of FITC-LPS by PAC beads after equilibration with lipid A; assay type: binding, E. coli; details: lipid A concentrations as high as 100 μM
Experimental: Fluorescence-based pull down assays for lipopolysaccharide (LPS) were conducted in 50 mM TRIS at pH 8.0 using Sepharose-immobilized PACs and agarose-immobilized polymyxin B (Sigma-Aldrich, St. Louis, Mo.). Immobilized capture molecules and LPS were incubated at room temperature for 1 hour with constant agitation followed by rinsing and transfer to a 96-well plate. The fluorescence of the FITC-labeled LPS (from E. coli 055:B5; Sigma-Aldrich) was measured using a Tecan XSafire monochrometer-based micro plate reader at 495 nm excitation and 520 nm emission (5 nm bandwidths).
To further investigate this potential interaction, an assay for the presence of FITC-LPS using PAC-beads was conducted after equilibration of the PAC beads with varying concentrations of lipid A (FIG. 11). Assays were conducted with 3 μg/mL FITC-LPS (approx. 3 nM).

[3] = system: HEK 293 cells stably expressing human CD14 and TLR4/MD2; experiment: LPS membrane binding in HEK-CD14-TLR4/MD2 cells; assay type: cell-based; details: 25 nM LPS, 1.5 h, 37° C.; 0.5 μM PAC; antibodies 500 nM in binding sites
Experimental: Human embryonic kidney cells (HEK 293) stably expressing human CD14 and TLR4/MD2 (HEK-CD14-TLR4/MD2; Invivogen) were grown in chambered wells and incubated with 25 nM LPS (E. coli serotype 055:B5, Sigma) in the absence or presence of 0.5 μM LH20 PAC (Dial>6K) for 1.5 h at 37° C. […] After incubation, the cells were washed with PBS (10 min) twice and either fixed (with 3.7% paraformaldehyde) to assess LPS membrane binding or fixed and permeabilized (with 0.1% Triton X-100) to determine LPS internalization. After blocking with 1% normal goat serum, membrane bound or internalized LPS was detected using a goat anti-LPS antibody (O/K serotype-specific, Abeam) conjugated to fluorescein. Nuclei were counterstained with DAPI. Imaging was performed using an Olympus IX-71 microscope. The relative amounts of membrane-associated or intracellular fluorescence were quantified by image analysis using Image J software (NIH, v. 1.37). Data is reported as the mean channel fluorescence from membrane-associated or internalized LPS and represents the analysis of 10 to 20 cells from each sample (minimum 10 measurements per each cell). Merged images were produced using Photoshop CS2 (ver. 9).

HEK-CD14-TLR4/MD2 cells = experiment: Cytotoxicity, cell proliferation assay (CellTiter96); assay type: cell-based, human; details: 48 h culture
Experimental: Cellular toxicity was measured using a […] cell proliferation assay (CellTiter96™, Promega). HEK-CD14-TLR4/MD2 cells were seeded into the wells of a 96-well plate (1×10^4 cells/well) and cultured with a dose range of test compounds for 48 h prior to assay according to the manufacturer's instructions.

## catechin
[1]
  binding of LPS-FITC by substance immobilized on glass waveguide: no binding even at the highest concentrations tested

## diphosphoryl lipid A
[2]
  inhibition of FITC-LPS binding by immobilized PACs at high lipid A concentration: ≤ 80%
[3]
  decrease in membrane-bound LPS: did not significantly reduce LPS membrane binding
HEK-CD14-TLR4/MD2 cells
  concentrations at which toxicity was not elicited: below 3 μM
